Test results reported in patent US12679878B2, “CRF2 receptor agonists and their use in therapy” (SANOFI, priority 2020, dated 2026).
Starred links: 1 amine or outer side, 2 acyl side, 3 side chain; linkers in the order of their positions; H or OH if unused. Non-standard residues stand in square brackets, D forms with d. Residues, ends and D or L forms follow the SMILES beside them. Groups on a side chain read outwards from the residue. *: point of attachment. C18 diacid = O=C(O)CCCCCCCCCCCCCCCCC(=O)*; γGlu = O=C(O)[C@H](CCC(=O)[*:2])N[*:1]; AEEA = NCCOCCOCC(=O)O; Aib = CC(C)(N)C(=O)O

Key:
rat CRF2R α receptor = assay: cAMP agonism at rat CRF2R α receptor in A7R5 rat aortic smooth muscle cells (Example 8); assay type: cell-based; details: cAMP HTRF, A7R5 rat aortic smooth muscle cell line, 0% HSA
Summary of the method: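 Thawed cryopreserved A7R5 cells in HBSS/20 mM HEPES (0 or 0.1% HSA) with 2 mM IBMX, 2000 cells/well, were exposed to compound for 30 min at room temperature. cAMP was read by HTRF (665/620 nm ratio) after 1 h with lysis reagents. Activity was normalised to 1000 nM urocortin 2 as 100%, and EC50 was taken as the concentration giving 50% of maximal activation.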

[1] = Physical stability, dynamic light scattering assay (Example 15); assay type: physicochemical; details: for Apparent Rh [nm] 4 weeks / Scattering Intensity (I) [%] 4 weeks: 4 weeks at 40° C.
Summary of the method: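 DLS at 837 nm, 150° angle, +25° C; Rh, scattering intensity and mass contribution measured at 0 weeks and after 4 weeks at 40° C. Rh and D compared at 1, 5 and 10 mg/ml as kD surrogate; separate measurements at 300 μM, purity-corrected.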

[2] = Buffer A (100 mM acetate, pH 4.5)
[3] = Buffer D (20 mM phosphate, pH 7.4)

With `CC[C@H](C)[C@H](N)C(=O)N[C@H](C(=O)N[C@@H](CC(C)C)C(=O)N[C@@H](CO)C(=O)N[C@@H](CC(C)C)C(=O)N[C@@H](CC(=O)O)C(=O)N[C@@H](C(=O)N1CCC[C@H]1C(=O)N[C@H](C(=O)N[C@@H](CCCCN)C(=O)N[C@@H](CC(C)C)C(=O)N[C@@H](CCCCNC(=O)COCCOCCNC(=O)COCCOCCNC(=O)CC[C@H](NC(=O)CCCCCCCCCCCCCCCCC(=O)O)C(=O)O)C(=O)N[C@@H](CCC(N)=O)C(=O)N[C@H](C(=O)N[C@@H](CC(C)C)C(=O)N[C@@H](CC(C)C)C(=O)N[C@@H](CCCCN)C(=O)N[C@@H](CCC(N)=O)C(=O)N[C@@H](CCC(=O)O)C(=O)N[C@@H](CCCNC(=N)N)C(=O)N[C@@H](CCC(N)=O)C(=O)N[C@@H](CCCCN)C(=O)N[C@@H](CCCCN)C(=O)NC(C)(C)C(=O)N[C@@H](CCCNC(=N)N)C(=O)N[C@@H](CCC(N)=O)C(=O)N[C@@H](CCCCN)C(=O)N[C@@H](C)C(=O)N[C@@H](CCC(=O)O)C(=O)N[C@@H](CCCCN)C(=O)N[C@@H](CC(N)=O)C(=O)N[C@@H](CCCCN)C(=O)N[C@@H](CCC(N)=O)C(=O)N[C@H](C(=O)N[C@@H](CC(C)C)C(=O)N[C@@H](C)C(=O)N[C@@H](CCC(N)=O)C(=O)N[C@H](C(N)=O)C(C)C)[C@@H](C)CC)[C@@H](C)CC)[C@@H](C)CC)C(C)C)C(C)C` [compound 136] (H-IVLSLD[dV]PIKLK([AEEA-AEEA-γGlu-C18 diacid])QILLKQERQKK[Aib]RQKAEKNKQILAQV-NH2; N-terminus assumed) the EC50 (rat CRF2R α receptor) was 0.38 nM, the “Apparent Rh [nm] 0 weeks” value [1, 2] was 2.75 ± 0.14 nm and the “Scattering Intensity (I) [%] 0 weeks” value [1, 2] was 98 ± 3%. The “Apparent Rh [nm] 4 weeks” value [1, 2] was 2.70 ± 0.28 nm, the “Scattering Intensity (I) [%] 4 weeks” value [1, 2] was 97 ± 2% and the “Apparent Rh [nm] 0 weeks” value [1, 3] was 2.40 ± 0.15 nm. The “Scattering Intensity (I) [%] 0 weeks” value [1, 3] was 98 ± 3%, the “Apparent Rh [nm] 4 weeks” value [1, 3] was 2.48 ± 0.07 nm and the “Scattering Intensity (I) [%] 4 weeks” value [1, 3] was 98 ± 2%.
